The results in this text go back to paper PMC9160031, “Identification of HMGCR as the anticancer target of physapubenolide against melanoma cells by in silico target prediction” (Acta Pharmacologica Sinica, 2021).

Structures are written as SMILES.

This test concerns the target T1, 3-hydroxy-methylglutaryl CoA reductase (HMGCR) (Homo sapiens, UniProt P04035).
T1 sequence (P04035 1-888): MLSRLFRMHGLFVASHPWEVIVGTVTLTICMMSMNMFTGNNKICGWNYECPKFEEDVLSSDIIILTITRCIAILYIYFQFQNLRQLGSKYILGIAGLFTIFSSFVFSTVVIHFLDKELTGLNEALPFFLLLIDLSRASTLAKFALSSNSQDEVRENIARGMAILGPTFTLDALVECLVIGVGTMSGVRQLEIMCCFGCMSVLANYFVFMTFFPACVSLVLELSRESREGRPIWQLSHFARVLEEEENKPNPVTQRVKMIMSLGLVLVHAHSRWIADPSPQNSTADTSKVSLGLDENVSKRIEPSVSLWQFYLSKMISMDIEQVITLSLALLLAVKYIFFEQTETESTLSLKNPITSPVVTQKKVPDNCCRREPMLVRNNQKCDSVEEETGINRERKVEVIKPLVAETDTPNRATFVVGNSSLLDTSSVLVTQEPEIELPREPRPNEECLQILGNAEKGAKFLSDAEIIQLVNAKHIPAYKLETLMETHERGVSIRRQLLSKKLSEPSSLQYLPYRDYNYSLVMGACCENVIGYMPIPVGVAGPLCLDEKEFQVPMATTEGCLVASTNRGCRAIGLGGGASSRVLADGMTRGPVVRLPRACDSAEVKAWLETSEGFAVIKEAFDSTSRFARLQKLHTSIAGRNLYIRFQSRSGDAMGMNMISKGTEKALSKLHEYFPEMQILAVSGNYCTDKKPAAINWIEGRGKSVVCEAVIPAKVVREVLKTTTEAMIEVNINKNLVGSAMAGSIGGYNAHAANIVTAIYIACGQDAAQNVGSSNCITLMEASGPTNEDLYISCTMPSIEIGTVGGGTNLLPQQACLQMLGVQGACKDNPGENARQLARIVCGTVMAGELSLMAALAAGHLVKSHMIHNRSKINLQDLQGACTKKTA
The experiment in a line: SPR direct binding assay (PB listed as stationary phase).

Broadly, the Kd is the constant that tells how readily two partners part at equilibrium. Low values mean a tighter complex, high ones a looser complex. In turn, `CC(=O)O[C@H]1CC([C@H](C)C2CC(C)=C(C)C(=O)O2)[C@@]2(C)CCC3C(C[C@H]4O[C@]45[C@@H](O)C=CC(=O)[C@]35C)[C@]12O` (stereo partly shown) [PB, Physapubenolide] returned a Kd of 1460 nM.
